How the values were obtained:
Cytochrome P450 1A2 = target: T1, Cytochrome P450 1A2 (Homo sapiens, UniProt P05177); further: in other assays of this panel Not Active means under 50% inhibition at 10 µM
T1 sequence (P05177 whole entry): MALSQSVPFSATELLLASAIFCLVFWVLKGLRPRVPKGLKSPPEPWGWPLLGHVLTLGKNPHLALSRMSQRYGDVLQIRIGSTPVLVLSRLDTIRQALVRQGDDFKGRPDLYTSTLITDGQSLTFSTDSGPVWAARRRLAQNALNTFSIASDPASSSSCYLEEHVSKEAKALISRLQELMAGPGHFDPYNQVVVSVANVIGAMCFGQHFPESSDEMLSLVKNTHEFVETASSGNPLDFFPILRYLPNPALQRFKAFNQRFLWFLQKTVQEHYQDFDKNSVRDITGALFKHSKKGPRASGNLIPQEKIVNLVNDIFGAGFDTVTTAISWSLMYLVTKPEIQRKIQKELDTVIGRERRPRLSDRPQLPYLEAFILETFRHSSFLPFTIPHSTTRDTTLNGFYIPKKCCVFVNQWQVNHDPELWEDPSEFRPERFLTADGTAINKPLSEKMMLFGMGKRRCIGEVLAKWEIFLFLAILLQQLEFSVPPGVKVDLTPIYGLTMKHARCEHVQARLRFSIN

Cytochrome P450 2C19 = Cytochrome P450 2C19 (Homo sapiens, UniProt P33261); further: in other assays of this panel Not Active means under 50% inhibition at 10 µM
Chain of Cytochrome P450 2C19 (P33261 whole entry): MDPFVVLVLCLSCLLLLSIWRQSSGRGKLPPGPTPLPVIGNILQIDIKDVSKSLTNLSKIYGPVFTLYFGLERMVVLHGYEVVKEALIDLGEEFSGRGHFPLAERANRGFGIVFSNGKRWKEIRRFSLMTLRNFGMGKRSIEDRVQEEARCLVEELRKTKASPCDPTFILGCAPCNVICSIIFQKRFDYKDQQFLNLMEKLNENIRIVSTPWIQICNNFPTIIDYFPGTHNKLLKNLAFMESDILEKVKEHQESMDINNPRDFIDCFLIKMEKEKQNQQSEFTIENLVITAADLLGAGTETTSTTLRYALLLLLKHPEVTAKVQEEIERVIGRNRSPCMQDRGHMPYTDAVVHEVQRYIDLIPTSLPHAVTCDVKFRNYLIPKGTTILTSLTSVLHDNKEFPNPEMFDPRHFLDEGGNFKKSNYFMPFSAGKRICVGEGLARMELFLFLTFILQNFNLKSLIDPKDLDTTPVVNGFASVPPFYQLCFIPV

[1] = target: Receptor tyrosine-protein kinase erbB-2 (Homo sapiens, UniProt P04626); test: biochemical; assay type: cell-based, Insect cells;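 further: inhibition of HER2 kinase enzyme activity, measured with Poly(Glu:Tyr) as the phosphorylation substrate; in other assays of this panel Not Active means under 50% inhibition at 10 µM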
Chain of Receptor tyrosine-protein kinase erbB-2 (P04626 whole entry): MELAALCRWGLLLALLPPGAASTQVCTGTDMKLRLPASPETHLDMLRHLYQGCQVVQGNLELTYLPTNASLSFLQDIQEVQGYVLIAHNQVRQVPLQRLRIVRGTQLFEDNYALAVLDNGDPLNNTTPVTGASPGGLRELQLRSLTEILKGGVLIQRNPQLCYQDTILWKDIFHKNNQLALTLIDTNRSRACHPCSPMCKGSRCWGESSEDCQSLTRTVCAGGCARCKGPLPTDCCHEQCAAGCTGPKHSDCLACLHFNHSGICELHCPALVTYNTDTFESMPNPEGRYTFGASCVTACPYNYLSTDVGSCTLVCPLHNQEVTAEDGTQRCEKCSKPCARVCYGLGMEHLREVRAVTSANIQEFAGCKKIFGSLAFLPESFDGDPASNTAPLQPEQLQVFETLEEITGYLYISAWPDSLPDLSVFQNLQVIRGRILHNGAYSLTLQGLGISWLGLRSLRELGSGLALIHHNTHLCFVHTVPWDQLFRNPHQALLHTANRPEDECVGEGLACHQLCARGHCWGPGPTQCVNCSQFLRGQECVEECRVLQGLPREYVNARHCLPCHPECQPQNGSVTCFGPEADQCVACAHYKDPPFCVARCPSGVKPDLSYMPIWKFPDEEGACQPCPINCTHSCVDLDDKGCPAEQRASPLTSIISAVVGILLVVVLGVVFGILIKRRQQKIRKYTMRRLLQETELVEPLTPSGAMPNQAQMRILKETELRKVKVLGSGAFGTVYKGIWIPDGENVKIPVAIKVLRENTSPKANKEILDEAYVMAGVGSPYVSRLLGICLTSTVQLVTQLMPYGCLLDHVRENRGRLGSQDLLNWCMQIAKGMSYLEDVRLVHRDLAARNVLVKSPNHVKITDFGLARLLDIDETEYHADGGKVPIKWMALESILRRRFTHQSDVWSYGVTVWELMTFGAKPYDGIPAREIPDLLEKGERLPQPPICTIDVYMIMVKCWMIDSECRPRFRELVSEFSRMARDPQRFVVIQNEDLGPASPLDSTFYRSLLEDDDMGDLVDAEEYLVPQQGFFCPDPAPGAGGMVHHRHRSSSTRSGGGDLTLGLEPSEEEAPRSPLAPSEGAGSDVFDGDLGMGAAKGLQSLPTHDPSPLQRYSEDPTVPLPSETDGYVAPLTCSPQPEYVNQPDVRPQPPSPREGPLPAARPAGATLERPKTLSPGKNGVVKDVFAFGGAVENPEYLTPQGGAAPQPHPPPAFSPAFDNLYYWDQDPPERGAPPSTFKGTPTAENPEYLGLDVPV

[2] = target: Mitogen-activated protein kinase 14 (Homo sapiens, UniProt Q16539); set-up: species or system Escherichia coli;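 further: inhibition of p38alpha enzyme activity in a biochemical kinase assay, with myelin basic protein serving as substrate; in other assays of this panel Not Active means under 50% inhibition at 10 µM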
Chain of Mitogen-activated protein kinase 14 (Q16539 whole entry): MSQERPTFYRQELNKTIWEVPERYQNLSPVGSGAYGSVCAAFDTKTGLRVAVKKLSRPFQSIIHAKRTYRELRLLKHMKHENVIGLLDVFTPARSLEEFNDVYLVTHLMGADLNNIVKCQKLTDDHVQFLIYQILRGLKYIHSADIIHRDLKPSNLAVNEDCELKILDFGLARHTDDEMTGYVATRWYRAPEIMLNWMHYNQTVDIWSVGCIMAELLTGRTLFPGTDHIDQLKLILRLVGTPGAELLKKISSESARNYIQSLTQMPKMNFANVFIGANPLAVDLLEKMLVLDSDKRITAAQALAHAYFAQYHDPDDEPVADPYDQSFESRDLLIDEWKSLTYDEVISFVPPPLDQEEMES

Cytochrome P450 2D6 = Cytochrome P450 2D6 (Homo sapiens, UniProt P10635); further: in other assays of this panel Not Active means under 50% inhibition at 10 µM
Chain of Cytochrome P450 2D6 (P10635 whole entry): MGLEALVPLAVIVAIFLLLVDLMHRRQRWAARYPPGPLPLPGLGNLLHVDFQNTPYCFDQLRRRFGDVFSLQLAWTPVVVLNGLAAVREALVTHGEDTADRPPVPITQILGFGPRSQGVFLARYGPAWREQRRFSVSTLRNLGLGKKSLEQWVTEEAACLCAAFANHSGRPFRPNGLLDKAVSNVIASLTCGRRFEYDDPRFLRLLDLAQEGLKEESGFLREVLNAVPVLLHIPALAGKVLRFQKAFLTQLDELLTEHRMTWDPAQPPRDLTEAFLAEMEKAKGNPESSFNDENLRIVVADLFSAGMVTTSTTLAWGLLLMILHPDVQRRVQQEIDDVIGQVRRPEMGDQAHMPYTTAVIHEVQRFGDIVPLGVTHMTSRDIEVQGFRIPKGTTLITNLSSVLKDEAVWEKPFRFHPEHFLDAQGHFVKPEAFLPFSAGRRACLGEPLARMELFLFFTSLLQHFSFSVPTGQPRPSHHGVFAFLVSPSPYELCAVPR

Androgen receptor = target: T2, Androgen receptor (Rattus norvegicus, UniProt P15207); further: in other assays of this panel Not Active means under 50% inhibition at 10 µM
T2 sequence (P15207 whole entry): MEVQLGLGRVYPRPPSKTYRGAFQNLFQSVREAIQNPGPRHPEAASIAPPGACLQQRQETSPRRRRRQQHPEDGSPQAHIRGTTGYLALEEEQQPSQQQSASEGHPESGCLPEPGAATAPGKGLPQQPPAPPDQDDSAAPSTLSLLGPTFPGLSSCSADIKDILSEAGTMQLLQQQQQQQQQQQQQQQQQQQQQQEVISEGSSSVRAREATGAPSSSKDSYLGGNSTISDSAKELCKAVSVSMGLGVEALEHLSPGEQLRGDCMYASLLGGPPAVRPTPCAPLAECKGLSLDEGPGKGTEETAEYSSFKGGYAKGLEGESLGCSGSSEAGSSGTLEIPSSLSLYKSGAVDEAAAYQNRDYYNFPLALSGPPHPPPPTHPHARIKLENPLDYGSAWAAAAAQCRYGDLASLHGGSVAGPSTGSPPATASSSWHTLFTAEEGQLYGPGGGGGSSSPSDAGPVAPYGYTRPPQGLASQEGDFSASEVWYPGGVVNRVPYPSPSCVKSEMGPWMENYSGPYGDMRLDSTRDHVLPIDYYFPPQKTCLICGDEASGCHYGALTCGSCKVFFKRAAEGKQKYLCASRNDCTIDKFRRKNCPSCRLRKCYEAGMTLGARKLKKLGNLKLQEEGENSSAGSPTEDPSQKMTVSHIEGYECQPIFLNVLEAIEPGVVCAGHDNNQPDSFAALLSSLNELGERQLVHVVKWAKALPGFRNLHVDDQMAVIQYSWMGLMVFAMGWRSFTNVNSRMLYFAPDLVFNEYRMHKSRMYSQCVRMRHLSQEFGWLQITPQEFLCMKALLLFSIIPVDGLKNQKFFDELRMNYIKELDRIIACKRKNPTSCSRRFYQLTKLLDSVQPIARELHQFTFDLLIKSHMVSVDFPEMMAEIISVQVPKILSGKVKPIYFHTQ

Histamine H2 receptor = Histamine H2 receptor (Homo sapiens, UniProt P25021); assay type: cell membranes, CHO-K1, Membrane; conditions: cho-k1; further: in other assays of this panel Not Active means under 50% inhibition at 10 µM
Chain of Histamine H2 receptor (P25021 whole entry): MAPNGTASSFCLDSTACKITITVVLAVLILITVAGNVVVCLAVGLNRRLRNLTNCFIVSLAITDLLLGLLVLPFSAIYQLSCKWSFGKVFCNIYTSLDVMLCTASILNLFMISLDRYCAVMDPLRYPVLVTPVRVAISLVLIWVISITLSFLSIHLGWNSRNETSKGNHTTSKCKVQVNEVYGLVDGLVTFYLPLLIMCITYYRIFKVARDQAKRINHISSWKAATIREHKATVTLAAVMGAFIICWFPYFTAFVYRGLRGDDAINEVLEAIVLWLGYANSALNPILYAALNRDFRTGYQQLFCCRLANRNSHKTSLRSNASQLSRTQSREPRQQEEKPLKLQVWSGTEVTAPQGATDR

[3] = target: Voltage-gated inwardly rectifying potassium channel KCNH2 (Homo sapiens, UniProt Q12809); further: in other assays of this panel Not Active means under 50% inhibition at 10 µM
Chain of Voltage-gated inwardly rectifying potassium channel KCNH2 (Q12809 whole entry): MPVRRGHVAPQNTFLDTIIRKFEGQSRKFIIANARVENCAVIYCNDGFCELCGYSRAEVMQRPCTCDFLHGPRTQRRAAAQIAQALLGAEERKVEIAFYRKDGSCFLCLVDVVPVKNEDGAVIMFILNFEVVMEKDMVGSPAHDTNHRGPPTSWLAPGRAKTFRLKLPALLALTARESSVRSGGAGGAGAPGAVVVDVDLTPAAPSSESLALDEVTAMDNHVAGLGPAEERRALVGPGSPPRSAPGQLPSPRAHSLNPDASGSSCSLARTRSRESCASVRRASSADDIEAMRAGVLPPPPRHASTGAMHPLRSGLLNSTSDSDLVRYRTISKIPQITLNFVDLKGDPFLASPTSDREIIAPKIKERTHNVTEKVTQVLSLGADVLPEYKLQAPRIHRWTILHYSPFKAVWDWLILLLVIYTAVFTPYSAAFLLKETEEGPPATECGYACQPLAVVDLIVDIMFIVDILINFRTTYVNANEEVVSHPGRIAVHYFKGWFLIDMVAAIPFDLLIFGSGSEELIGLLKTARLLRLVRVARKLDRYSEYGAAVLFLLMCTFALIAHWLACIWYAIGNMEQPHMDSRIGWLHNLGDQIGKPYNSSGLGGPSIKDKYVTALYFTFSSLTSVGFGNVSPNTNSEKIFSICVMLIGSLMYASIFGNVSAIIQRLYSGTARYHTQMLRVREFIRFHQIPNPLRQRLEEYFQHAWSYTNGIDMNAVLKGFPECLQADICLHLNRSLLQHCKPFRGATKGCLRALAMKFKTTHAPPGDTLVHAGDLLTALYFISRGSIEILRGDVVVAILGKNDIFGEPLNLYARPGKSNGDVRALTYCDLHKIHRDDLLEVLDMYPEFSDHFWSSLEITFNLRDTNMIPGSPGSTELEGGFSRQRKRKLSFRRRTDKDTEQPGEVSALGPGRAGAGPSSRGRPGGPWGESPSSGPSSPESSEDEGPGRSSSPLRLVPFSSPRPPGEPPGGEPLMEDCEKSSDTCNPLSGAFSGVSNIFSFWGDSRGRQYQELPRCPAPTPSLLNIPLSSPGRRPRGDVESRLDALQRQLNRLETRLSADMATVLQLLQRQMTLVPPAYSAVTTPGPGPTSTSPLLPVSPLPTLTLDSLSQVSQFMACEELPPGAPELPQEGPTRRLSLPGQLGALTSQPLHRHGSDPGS

[4] = DRUGMATRIX: Glutamate, Kainate radioligand binding (ligand: [3H] Kainic acid); assay type: cell membranes, Rattus norvegicus, Wistar, Brain, Membrane; conditions: Not Active = under 50% inhibition at 10 µM
Cytochrome P450 2C9 = Cytochrome P450 2C9 (Homo sapiens, UniProt P11712); further: in other assays of this panel Not Active means under 50% inhibition at 10 µM
Chain of Cytochrome P450 2C9 (P11712 whole entry): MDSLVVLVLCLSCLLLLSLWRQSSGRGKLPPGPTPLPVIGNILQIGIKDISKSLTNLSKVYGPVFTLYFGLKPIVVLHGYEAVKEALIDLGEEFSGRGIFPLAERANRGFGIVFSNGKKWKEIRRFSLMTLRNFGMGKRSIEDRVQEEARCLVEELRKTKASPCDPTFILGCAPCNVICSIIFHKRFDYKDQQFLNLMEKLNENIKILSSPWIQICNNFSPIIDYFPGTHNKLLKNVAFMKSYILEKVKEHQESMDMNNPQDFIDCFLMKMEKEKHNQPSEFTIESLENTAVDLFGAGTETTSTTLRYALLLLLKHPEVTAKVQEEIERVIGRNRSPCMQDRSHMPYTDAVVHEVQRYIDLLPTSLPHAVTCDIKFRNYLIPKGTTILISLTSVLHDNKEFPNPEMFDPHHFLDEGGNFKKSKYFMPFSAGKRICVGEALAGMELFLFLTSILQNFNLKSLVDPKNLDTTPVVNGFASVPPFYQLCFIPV

| Structure (SMILES) | IC50 (Cytochrome P450 1A2) [nM] | IC50 (Cytochrome P450 2C19) [nM] | IC50 ([1]; read-out: IC50) [nM] | IC50 [2] | IC50 (Cytochrome P450 2D6) [nM] | IC50 (Androgen receptor) | IC50 (Histamine H2 receptor) | IC50 ([1]; insect cells) | IC50 [3] [nM] | Ki [3] [nM] | IC50 [4] | Ki [4] | IC50 (Cytochrome P450 2C9) [nM] | IC50 ([2]; read-out: IC50) [nM] |
| --- | --- | --- | --- | --- | --- | --- | --- | --- | --- | --- | --- | --- | --- | --- |
| Clc1ccc(COC(Cn2ccnc2)c2ccc(Cl)cc2Cl)cc1 (configuration not stated) [ECONAZOLE] | 300 | 40 | 13900 | Not Active | 400 |  |  |  |  |  |  |  |  |  |
| CCN(CC)CCOc1ccc(/C(=C(/Cl)c2ccccc2)c2ccccc2)cc1 [ENCLOMIPHENE] |  |  | 1670 | Not Active | 10000 | Not Active | Not Active |  |  |  |  |  |  |  |
| CN[C@H]1CC[C@@H](c2ccc(Cl)c(Cl)c2)c2ccccc21 [SERTRALINE] |  | 1000 |  | Not Active |  |  | Not Active | Not Active | 8320 | 6810 |  |  |  |  |
| NC(=O)N1C(=O)/C(=C(\O)c2cccs2)c2cc(Cl)ccc21 [TENIDAP] | 1000 |  |  | Not Active |  | Not Active | Not Active | Not Active |  |  | Not Active | Not Active | 700 |  |
| CN(C/C=C/C#CC(C)(C)C)Cc1cccc2ccccc12 [TERBINAFINE] |  |  |  | Not Active | 200 |  | Not Active | Not Active |  |  | Not Active | Not Active |  |  |
| O=C(Nc1ccc(Br)cc1)c1cc(Br)cc(Br)c1O [TRIBROMSALAN] | 2000 |  | 5970 |  |  |  | Not Active |  |  |  | Not Active | Not Active | 2000 | 715 |
